According to patent US8362050B2, “Compounds and methods for modulating G protein-coupled receptors” (IRM LLC, priority 2008, dated 2013):
Like-named read-outs stand apart in the source and are kept apart here.

Target: T1, Human GPR120 (Homo sapiens, UniProt Q5NUL3)
T1 construct: Ga16 (promiscuous G protein) fusion partner; expressed in transfected cells
T1 sequence (Q5NUL3 with tags, fused parts or gaps): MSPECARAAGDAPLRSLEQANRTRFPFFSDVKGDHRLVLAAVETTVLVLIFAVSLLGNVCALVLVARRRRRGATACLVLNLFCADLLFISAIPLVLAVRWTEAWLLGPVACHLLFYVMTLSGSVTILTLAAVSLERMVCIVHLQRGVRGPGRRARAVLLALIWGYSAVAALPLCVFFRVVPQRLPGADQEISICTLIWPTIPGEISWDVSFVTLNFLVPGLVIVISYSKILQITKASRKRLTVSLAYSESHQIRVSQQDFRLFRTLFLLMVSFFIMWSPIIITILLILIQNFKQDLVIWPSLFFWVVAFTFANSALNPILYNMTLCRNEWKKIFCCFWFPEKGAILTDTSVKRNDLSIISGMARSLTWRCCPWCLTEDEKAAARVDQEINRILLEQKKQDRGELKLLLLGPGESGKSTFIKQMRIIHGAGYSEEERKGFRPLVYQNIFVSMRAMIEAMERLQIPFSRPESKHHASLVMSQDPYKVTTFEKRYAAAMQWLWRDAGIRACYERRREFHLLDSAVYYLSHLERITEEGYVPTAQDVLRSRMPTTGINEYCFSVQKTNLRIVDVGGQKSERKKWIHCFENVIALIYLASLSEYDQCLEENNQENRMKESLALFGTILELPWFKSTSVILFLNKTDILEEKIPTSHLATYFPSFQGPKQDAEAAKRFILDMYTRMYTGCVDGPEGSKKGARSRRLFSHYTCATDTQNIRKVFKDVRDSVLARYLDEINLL
Assay: FLIPR assay: agonist-induced calcium mobilization in HEK293-GPR120-Ga16 cells
Format: cell-based
Settings: for EC50: GPR120 activation, calcium mobilization, HEK293-GPR120-Ga16 cells; for Emax: % enhancement of the test compound relative to a known compound, read-out: % Efficiency
Method: Human GPR120 stable cell-line was generated in HEK293 cells. GPR120 (Accession number BC101175) is fused to a promiscuous G protein, Ga16. The expression plasmid is transfected into HEK293 cells using Fugene6 following manufacturer's instruction. Stable cell-lines are generated following drug selection.
FLIPR (Fluorimetric Imaging Plate Reader, Molecular Devices) assays are performed to measure agonist-induced calcium mobilization in the GPR120-expressing cells. One day before the FLIPR assay, HEK293-GPR120-Ga16 cells are seeded into poly-D-lysine coated black-wall-clear bottom 384 well plates (Falcon) at 25,000 cells per well in 40 μl DMEM supplemented with 1% of FBS. The cells are incubated overnight at 37° C. in a humidified incubator. The medium is aspirated on the day of the FLIPR assay. The cells are incubated with 50 μl/well of the assay buffer (HBSS, 20 mM HEPES, 2.5 mM probenecid, pH7.4) containing Fluo-4 NM dye (Invitrogen cat# F36205) at 37° C. for 45 minutes, and then equilibrated at room temperature for 30 minutes. Compounds are dissolved in DMSO and diluted to desired concentrations with assay buffer. Fluorescent output is measured immediately following compound addition (12.5 μl/well) on the FLIPR machine.
An EC50 value was calculated using the change of fluorescent intensity from the reaction initiation. […] In some examples, compounds provided herein have EC50 values from 0.1 μM to 5 μM, while in other examples from 0.5 μM to 5 μM.
The EC50 value in those experiments is given as that concentration of the test compound in question that provoke a response halfway between the baseline and maximum responses. In certain examples compounds of Formula (I) have EC50 values from 0.001 μM to 5 μM. In other examples, compounds of Formula (I) have EC50 values from 0.001 μM to 4 μM. In other examples, compounds of Formula (I) have EC50 values from 0.001 μM to 3 μM. In other examples, compounds of Formula (I) have EC50 values from 0.001 μM to 2 μM. In other examples, compounds of Formula (I) have EC50 values from 0.001 μM to 1 μM. In other examples, compounds of Formula (I) have EC50 values from 0.001 μM to 0.5 μM. […] In other examples, compounds of Formula (I) have EC50 values from 0.001 μM to 0.1 μM.
The % efficiency in those experiments is given as that % enhancement of the test compound in question relative to a known compound. In certain examples compounds of Formula (I) have a % efficiency values from 50% to 150%. In other examples, compounds of Formula (I) have a % efficiency values from 55% to 150%. In other examples, compounds of Formula (I) have a % efficiency values from 60% to 150%. In other examples, compounds of Formula (I) have a % efficiency values from 65% to 150%. In other examples, compounds of Formula (I) have a % efficiency values from 70% to 150%. In other examples, compounds of Formula (I) have a % efficiency values from 75% to 150%. In other examples, compounds of Formula (I) have a % efficiency values from 80% to 150%. In other examples, compounds of Formula (I) have a % efficiency values from 85% to 150%. In other examples, compounds of Formula (I) have a % efficiency values from 90% to 150%. In other examples, compounds of Formula (I) have a % efficiency values from 95% to 150%. In other examples, compounds of Formula (I) have a % efficiency values from 100% to 150%.

Row | Structure (SMILES) | EC50 (read-out: EC50 Range) [µM] | Emax [%] | EC50 (read-out: EC50) [µM]
1 | CCn1c(-c2cccc(OCc3ccccc3)c2)cs/c1=N\c1ccc(C(=O)O)cc1 [Compound 26, (Z)-4-(4-(3-(benzyloxy)phenyl)-3-ethylthiazol-2(3H)-ylideneamino)benzoic acid] | 0.5 to 1 |  | 
2 | CCn1c(-c2cccc(OCc3ccccn3)c2)cs/c1=N\c1ccc(C(=O)O)cc1 [Compound 27, (Z)-4-(3-ethyl-4-(3-(pyridin-2-ylmethoxy)phenyl)thiazol-2(3H)-ylideneamino)benzoic acid] | 0.5 to 1 | 65.9 | 0.7
3 | CCn1c(-c2ccccc2OC)cs/c1=N\c1ccc(S(=O)(=O)O)cc1 [Compound 28, (Z)-4-(3-ethyl-4-(2-methoxyphenyl)thiazol-2(3H)-ylideneamino)benzenesulfonic acid] | 0.1 to 0.25 |  | 
4 | CCn1c(-c2cccc(OC)c2)cs/c1=N\c1ccc(S(=O)(=O)O)cc1 [Compound 29, (Z)-4-(3-ethyl-4-(3-methoxyphenyl)thiazol-2(3H)-ylideneamino)benzenesulfonic acid] | 0.25 to 0.5 |  | 
5 | CCn1c(-c2ccccc2Cl)cs/c1=N\c1ccc(S(=O)(=O)O)cc1 [Compound 30, (Z)-4-(4-(2-chlorophenyl)-3-ethylthiazol-2(3H)-ylideneamino)benzenesulfonic acid] | 0.1 to 0.25 |  | 
6 | CCn1c(-c2cccc(Cl)c2)cs/c1=N\c1ccc(S(=O)(=O)O)cc1 [Compound 31, (Z)-4-(4-(3-chlorophenyl)-3-ethylthiazol-2(3H)-ylideneamino)benzenesulfonic acid] | 0.001 to 0.1 | 114 | 0.078
7 | CCn1c(-c2ccccc2OC)cs/c1=N\c1ccc(C(=O)O)cc1 [Compound 32, (Z)-4-(3-ethyl-4-(2-methoxyphenyl)thiazol-2(3H)-ylideneamino)benzoic acid] | 0.5 to 1 |  | 
8 | CCn1c(-c2cccc(OC)c2)cs/c1=N\c1ccc(C(=O)O)cc1 [Compound 33, (Z)-4-(3-ethyl-4-(3-methoxyphenyl)thiazol-2(3H)-ylideneamino)benzoic acid] | 0.5 to 1 |  | 
9 | CCn1c(-c2ccccc2Cl)cs/c1=N\c1ccc(C(=O)O)cc1 [Compound 34, (Z)-4-(4-(2-chlorophenyl)-3-ethylthiazol-2(3H)-ylideneamino)benzoic acid] | 0.1 to 0.25 |  | 
10 | CCn1c(-c2cccc(Cl)c2)cs/c1=N\c1ccc(C(=O)O)cc1 [Compound 35, (Z)-4-(4-(3-chlorophenyl)-3-ethylthiazol-2(3H)-ylideneamino)benzoic acid] | 0.1 to 0.25 |  | 
11 | CCn1c(-c2ccccc2)cs/c1=N\c1ccc(C(=O)O)cc1 [Compound 36, (Z)-4-(3-ethyl-4-phenylthiazol-2(3H)-ylideneamino)benzoic acid] | 0.25 to 0.5 |  | 
12 | CCn1c(-c2ccccc2)cs/c1=N\c1ccc(S(=O)(=O)O)cc1 [Compound 37, (Z)-4-(3-ethyl-4-phenylthiazol-2(3H)-ylideneamino)benzenesulfonic acid] | 0.1 to 0.25 |  | 
13 | CCn1c(-c2c(Cl)cccc2Cl)cs/c1=N\c1ccc(C(=O)O)cc1 [Compound 38, (Z)-4-(4-(2,6-dichlorophenyl)-3-ethylthiazol-2(3H)-ylideneamino)benzoic acid] | 0.1 to 0.25 |  | 
14 | CCn1c(-c2cccc(Cl)c2Cl)cs/c1=N\c1ccc(C(=O)O)cc1 [Compound 39, (Z)-4-(4-(2,3-dichlorophenyl)-3-ethylthiazol-2(3H)-ylideneamino)benzoic acid] | 0.1 to 0.25 |  | 
15 | CCn1c(-c2cccc3ccccc23)cs/c1=N\c1ccc(C(=O)O)cc1 [Compound 40, (Z)-4-(3-ethyl-4-(naphthalen-1-yl)thiazol-2(3H)-ylideneamino)benzoic acid] | 0.25 to 0.5 | 107 | 0.354
16 | CCn1c(-c2ccc3ccccc3c2)cs/c1=N\c1ccc(C(=O)O)cc1 [Compound 41, (Z)-4-(3-ethyl-4-(naphthalen-2-yl)thiazol-2(3H)-ylideneamino)benzoic acid] | 0.25 to 0.5 |  | 
17 | CCn1c(-c2ccccc2Br)cs/c1=N\c1ccc(C(=O)O)cc1 [Compound 42, (Z)-4-(4-(2-bromophenyl)-3-ethylthiazol-2(3H)-ylideneamino)benzoic acid] | 0.001 to 0.1 |  | 
